One series has as its target T1, muscarinic M1 receptor (Homo sapiens, UniProt P11229).
T1 sequence (P11229 1-460): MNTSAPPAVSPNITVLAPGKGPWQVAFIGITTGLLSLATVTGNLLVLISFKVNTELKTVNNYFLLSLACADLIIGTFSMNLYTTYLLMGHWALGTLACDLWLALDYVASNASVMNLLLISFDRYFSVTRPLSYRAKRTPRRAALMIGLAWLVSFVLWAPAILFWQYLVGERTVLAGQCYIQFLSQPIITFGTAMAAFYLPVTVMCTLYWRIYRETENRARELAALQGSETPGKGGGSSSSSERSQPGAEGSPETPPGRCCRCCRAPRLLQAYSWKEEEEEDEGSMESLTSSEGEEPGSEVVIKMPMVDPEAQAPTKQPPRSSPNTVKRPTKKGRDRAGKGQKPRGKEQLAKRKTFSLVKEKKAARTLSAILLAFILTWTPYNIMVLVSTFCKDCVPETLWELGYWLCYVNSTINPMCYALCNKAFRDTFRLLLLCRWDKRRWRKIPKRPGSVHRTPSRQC
The series is described as follows: Allosteric potency EC50 for muscarinic M1 receptor (CHO pCRE-Luc reporter assay). The format is cell-based. Particulars: in presence of EC20 of acetylcholine; CHO cells, luciferase reporter, 4 hours. The procedure:
Determination of Allosteric Potency EC50 Values for Muscarinic M1 Receptor:
A stable CHO cell line expressing recombinant human Muscarinic M1 receptor and pCRE-Luc reporter system was used for cell-based assay. The assay offers a non-radioactive based approach to determine binding of a compound to GPCRs. In this specific assay, the level of intracellular cyclic AMP which is modulated by activation or inhibition of the receptor is measured. The recombinant cells harbor luciferase reporter gene under the control of cyclic AMP response element.
The above cells were grown in 96 well clear bottom white plates in Hams F12 medium containing 10% fetal bovine serum (FBS). Prior to the addition of compounds or standard agonist, cells were serum starved overnight. Increasing concentrations of test compounds were added along with EC20 of acetylcholine in OptiMEM medium to the cells. The incubation was continued at 37° C. in CO2 incubator for 4 hours. Medium was removed and cells were washed with phosphate buffered saline. The cells were lysed and luciferase activity was measured in a Luminometer. Luminescence units were plotted against the compound concentrations using Graphpad software. EC50 values of the compounds were defined as the concentration required in stimulating the luciferase activity by 50% in presence of EC20 of acetylcholine and the results are provided in table 1.

A short description of series [1]: Rodent pharmacokinetic study. The format is in vivo, Male Wistar rats. Particulars: rat; for AUC(0-t) / clearance / half-life / Cmax: male, Wistar, plasma; for F: oral (gavage) 3 mg/kg vs intravenous 1 mg/kg. The procedure: Rodent Pharmacokinetic Study
Male Wistar rats (260±50 grams) were used as experimental animals. Animals were housed individually in polypropylene cage. Two days prior to study, male Wistar rats were anesthetized with isoflurane for surgical placement of jugular vein catheter. Rats were randomly divided for oral (3 mg/kg) and intravenous (1 mg/kg) dosing (n=3/group) and fasted overnight before oral dosing (p.o.). However, rats allocated to intravenous dosing food and water was provided ad libitum.
At pre-determined point, blood was collected through jugular vein and replenished with an equivalent volume of normal saline. Collected blood was transferred into a labeled eppendorf tube containing 10 μL of heparin as an anticoagulant. Typically blood samples were collected at following time points: 0.08, 0.25, 0.5, 1, 2, 4, 6, 8, and 24 hours post dose. Blood was centrifuged at 4000 rpm for 10 minutes. Plasma was separated and stored frozen at −80° C. until analysis. The concentrations of the test compounds were quantified in plasma by qualified LC-MS/MS method using suitable extraction technique. The test compounds were quantified in the calibration range around 1-1000 ng/mL in plasma. Study samples were analyzed using calibration samples in the batch and quality control samples spread across the batch.
Pharmacokinetic parameters Cmax, AUCt, T1/2, Clearance and Bioavailability (F) were calculated by non-compartmental model using standard non-compartmental model by using Phoenix WinNonlin 6.0.4 version Software package.

A short description of series [2]: Rodent brain penetration study. It is filed as in vivo, Male Wistar rats. Particulars: male, Wistar, brain and plasma, po; rat, 3 mg/kg, p.o., brain-plasma ratio; read-out: Single dose Rat Brain Penetration (Cb/Cp) at 3 mg/kg, p.o. The procedure:
Rodent Brain Penetration Study
Male Wistar rats (260±40 grams) were used as experimental animals. Three animals were housed in each cage. Animals were given water and food ad libitum throughout the experiment and maintained on a 12 hours light/dark cycle.
Brain penetration was determined in discrete manner in rats. One day prior to dosing day, male Wistar rats were acclimatized and randomly grouped according to their weight. At each time point (0.50, 1 and 2 hours) n=3 animals were used.
The test compounds were suitably preformulated and administered orally at (free base equivalent) 3 mg/kg. Blood samples were removed via cardiac puncture by using isoflurane anesthesia. The animals were sacrificed to collect brain tissue. Plasma was separated and brain samples were homogenized and stored frozen at −20° C. until analysis. The concentrations of the test compounds in plasma and brain were determined using LC-MS/MS method.
The test compounds were quantified in plasma and brain homogenate by qualified LC-MS/MS method using suitable extraction technique. The test compounds were quantified in the calibration range of 1-500 ng/mL in plasma and brain homogenate. Study samples were analyzed using calibration samples in the batch and quality control samples spread across the batch. Extent of brain-plasma ratio (Cb/Cp) was calculated

For `CN1CCc2c(Cc3ccnc(F)c3)cc(C(=O)N[C@H]3CCCC[C@@H]3O)nc21` [Example 73, N-[(1S,2S)-2-Hydroxycyclohexyl]-4-(2-fluoropyridin-4-ylmethyl)-1-methyl-2,3-dihydro-1H-pyrrolo[2,3-b]pyridine-6-carboxamide], the EC50 on muscarinic M1 receptor was 786 nM. In series [1] (intravenous (bolus), 1 mg/kg), this compound showed an AUC(0-t) of 742 ± 40 ng·h/mL, a clearance of 22 ± 1 mL/min/kg and a half-life of 1.1 ± 0.3 h. In series [1] (oral (gavage), 3 mg/kg), this compound had an AUC(0-t) of 1740 ± 296 ng·h/mL, a Cmax of 1100 ± 85 ng/mL and a half-life of 1.2 ± 0.1 h. In series [1], the F was found to be 78 ± 13%.
As for `CN1CCOc2c(Cc3ccc(F)cc3)cc(C(=O)N[C@@H]3CCOC[C@H]3O)nc21` (single isomer, unassigned; isomer-ii) [Example 124, trans-N-(3-Hydroxytetrahydropyran-4-yl)-8-(4-fluorobenzyl)-4-methyl-2H-pyrido[3,2-b][1,4]oxazine-6-carboxamide (Isomer-II)], in series [1] (intravenous (bolus), 1 mg/kg), the AUC(0-t) came to 787 ± 130 ng·h/mL, the clearance came to 21 ± 3 mL/min/kg and the half-life is 1.1 ± 0.1 h. In addition, in series [1] (oral (gavage), 3 mg/kg), the AUC(0-t) amounted to 526 ± 126 ng·h/mL, the Cmax was determined as 306 ± 66 ng/mL and the half-life is 0.5 h. The F in series [1] amounted to 22 ± 5%. Besides, in series [2], the Kp was determined as 0.52 ± 0.05.
`Cn1ccc2c(Cc3ccc(F)cc3)cc(C(=O)N[C@@H]3COCC[C@@H]3O)nc21` (single isomer, unassigned; isomer-i) [Example 65, cis-N-(4-Hydroxytetrahydropyran-3-yl)-4-(4-fluorobenzyl)-1-methyl-1H-pyrrolo[2,3-b]pyridine-6-carboxamide (Isomer-I)]: in series [2], the Kp stood at 0.32.
Regarding `Cn1ccc2c(Cc3ccnc(F)c3)cc(C(=O)NC3CCOCC3O)nc21` (single isomer, unassigned) [Example 45, Racemic cis-N-(3-Hydroxytetrahydropyran-4-yl)-4-(2-fluoropyridin-4-ylmethyl)-1-methyl-1H-pyrrolo[2,3-b]pyridine-6-carboxamide], the EC50 at muscarinic M1 receptor came out at 3150 nM.
Still for that read-out and setting: the result for `Cn1ccc2c(Cc3ccc(Cl)nc3)cc(C(=O)N[C@H]3CCOC[C@H]3O)nc21` (single isomer, unassigned; isomer-i) [Example 49, cis-N-(3-Hydroxytetrahydropyran-4-yl)-4-(2-chloropyridin-5-ylmethyl)-1-methyl-1H-pyrrolo[2,3-b]pyridine-6-carboxamide (Isomer-I)] reads 1410 nM; that for `Cn1ccc2c(Cc3ccc(F)cc3)cc(C(=O)N[C@@H]3CCOC[C@H]3O)nc21` (racemic) [Example 32, Racemic trans-N-(3-Hydroxytetrahydropyran-4-yl)-4-(4-fluorobenzyl)-1-methyl-1H-pyrrolo[2,3-b]pyridine-6-carboxamide], 486 nM; that for `CSc1ccc(Cc2cc(C(=O)N[C@H]3CCCC[C@@H]3O)nc3c2ccn3C)cn1` [Example 20, N-[(1S,2S)-2-Hydroxycyclohexyl]-4-(2-methylsulfanylpyridin-5-ylmethyl)-1-methyl-1H-pyrrolo[2,3-b]pyridine-6-carboxamide], 315 nM.
With `Cn1ccc2c(Cc3cccnc3)cc(C(=O)N[C@H]3CCCC[C@@H]3O)nc21` [Example 27, N-[(1S,2S)-2-Hydroxycyclohexyl]-4-(pyridin-3-ylmethyl)-1-methyl-1H-pyrrolo[2,3-b]pyridine-6-carboxamide], the EC50 at muscarinic M1 receptor stood at 234 nM.
Still for that read-out and setting: the result for `COc1ccc(Cc2cc(C(=O)N[C@H]3CCCC[C@@H]3O)nc3c2ccn3C)cc1` [Example 19, N-[(1S,2S)-2-Hydroxycyclohexyl]-4-(4-methoxybenzyl)-1-methyl-1H-pyrrolo[2,3-b]pyridine-6-carboxamide] reads 1110 nM.
Take `Cl.O=C(N[C@H]1CCCC[C@@H]1O)c1cc(Cc2ccc(F)cc2)c2c(n1)CNCC2` [Example 87, N-[(1S,2S)-2-Hydroxycyclohexyl]-4-(4-fluorobenzyl)-5,6,7,8-tetrahydro[1,7]naphthyridine-2-carboxamide Hydrochloride]: at muscarinic M1 receptor, the EC50 worked out at 241 nM. In addition, in series [1] (intravenous (bolus), 1 mg/kg), the AUC(0-t) amounted to 224 ± 66 ng·h/mL, the clearance stood at 79 ± 27 mL/min/kg and the half-life is 1.5 ± 0.1 h. Also, in series [1] (oral (gavage), 3 mg/kg), the AUC(0-t) was found to be 219 ± 70 ng·h/mL, the Cmax was determined as 97 ± 39 ng/mL and the half-life is 0.7 ± 0.3 h. Also, the F in series [1] is reported as 32 ± 10%. For the same compound, the Kp in series [2] worked out at 0.15 ± 0.01.
`Cn1ccc2c(Cc3cccc(F)c3F)cc(C(=O)N[C@H]3CCCC[C@@H]3O)nc21` [Example 16, N-[(1S,2S)-2-Hydroxycyclohexyl]-4-(2,3-difluorobenzyl)-1-methyl-1H-pyrrolo[2,3-b]pyridine-6-carboxamide]: the EC50 at muscarinic M1 receptor worked out at 1290 nM.
Turning to `Cn1ccc2c(Cc3ccncc3)cc(C(=O)N[C@H]3CCCC[C@@H]3O)nc21` [Example 14, N-[(1S,2S)-2-Hydroxycyclohexyl]-4-(pyridin-4-ylmethyl)-1-methyl-1H-pyrrolo[2,3-b]pyridine-6-carboxamide], the EC50 at muscarinic M1 receptor stood at 891 nM.
For the compound `Cn1ccc2c(Cc3ccnc(F)c3)cc(C(=O)N[C@H]3CCOC[C@H]3O)nc21` (single isomer, unassigned; isomer-i) [Example 46, cis-N-(3-Hydroxytetrahydropyran-4-yl)-4-(2-fluoropyridin-4-ylmethyl)-1-methyl-1H-pyrrolo[2,3-b]pyridine-6-carboxamide (Isomer-I)], the EC50 on muscarinic M1 receptor is 2960 nM.
Take `Cc1ncccc1-c1ccc(Cc2cc(C(=O)N[C@H]3CCCC[C@@H]3O)nc3c2ccn3C)cc1` [Example 21, N-[(1S,2S)-2-Hydroxycyclohexyl]-4-[4-(2-methylpyridin-3-yl)benzyl]-1-methyl-1H-pyrrolo[2,3-b]pyridine-6-carboxamide]: the EC50 on muscarinic M1 receptor is 1050 nM.
`Cn1ccc2c(Cc3ccc(F)cc3)cc(C(=O)N[C@H]3CCOC[C@H]3O)nc21` (single isomer, unassigned; isomer-i) [Example 36, cis-N-(3-Hydroxytetrahydropyran-4-yl)-4-(4-fluorobenzyl)-1-methyl-1H-pyrrolo[2,3-b]pyridine-6-carboxamide (Isomer-I)]: on muscarinic M1 receptor, the EC50 was determined as 3170 nM.

For orientation: EC50 means the concentration giving half of the maximal effect. As a reminder, the AUC(0-t) is the area under the concentration-time curve up to a stated or last time point. Low readings indicate low exposure, high ones high exposure. As usually defined, the clearance is the volume of plasma or blood freed of the substance per unit of time. A high value points to efficient removal. A word on the half-life: it is the time in which the quantity being followed falls by half. Read a low half-life as rapid decline. In general, Cmax refers to the maximum level reached in the sampled fluid or tissue.

For the origin of these results see US11040026B2, “Muscarinic M1 receptor positive allosteric modulators” (SUVEN LIFE SCIENCES LIMITED, priority 2016, dated 2021).
